Laboratory results taken from patent US8263389B2, “Perifusion device” (Biorep Technologies, Inc., priority 2007, dated 2012).
Where no end group is shown, it is not given here.

Legend:
[1] = system: human islets; experiment: glucagon-insulin release from in vitro perifused human islets; format: cell-based; details: alpha cells of perifused human islets
Method: FIG. 22 illustrates glucagon-insulin release from in vitro perifused human islets. This experiment was conducted to show the usefulness of the perifusion system in drug screening. Insulin and glucagon are hormones secreted from the beta and alpha cells of the islets of Langerhans. […] In the same way, any other compound's ability to influence the health or alter the behavior of the pancreatic islets can be assayed using the perifusion system of the invention.

[2] = system: Islet cells; experiment: insulin release by perifusion of islet cells after oxygen deprivation, measured by ELISA; format: cell-based; details: 11 mM glucose, GLP-1 in addition to 11 mM glucose, KCl
Method: Islet cells were compromised by depriving them from the normal oxygen concentration for 0.5, 2, 6, and 12 hours. After that, these islets were incubated in the perifusion system and exposed to substances that stimulate insulin release such as 11 mM of glucose, GLP-1 in addition to 11 mM of glucose, and potassium chloride (KCl).

[3] = control batch, normal culture conditions without oxygen deprivation
[4] = islets after twelve hours of incubation with low oxygen

Row | Compound | glucagon release profile [1] | insulin release response to stimulus [2, 3] | insulin release response to stimulus [2, 4]
1 | kainates | stimulated the alpha cells to produce glucagon |  | 
2 | GLP-1 (HAEGTFTSDVSSYLEGQAAKEFIAWLVKGR; ends and bridges not checked; UniProt P01275 98-127, looked up) |  | prominent response | little or no response
3 | [Cl-].[K+] [KCl, potassium chloride] |  | prominent response | very small
